The NIST ThermoML archive (doi:10.1021/je5010164)

Settings: Liquid, Frequency=8 MHz, Pulse-echo method

C1CCCC1 [cyclopentane]
Settings	speed of sound [m/s]
258.15 K, 100 kPa	1419.1
258.15 K, 5072 kPa	1446.1
258.15 K, 10244 kPa	1473
258.15 K, 15262 kPa	1498.1
258.15 K, 20158 kPa	1521.7
258.15 K, 25083 kPa	1544.5
258.15 K, 30141 kPa	1567.1
273.15 K, 100 kPa	1336.6
273.15 K, 5169 kPa	1366.7
273.15 K, 10059 kPa	1394.3
273.15 K, 15219 kPa	1422
273.15 K, 20251 kPa	1447.9
273.15 K, 25184 kPa	1472.3
273.15 K, 30227 kPa	1496.3
293.15 K, 105 kPa	1230.1
293.15 K, 5059 kPa	1263
293.15 K, 10088 kPa	1294.4
293.15 K, 15198 kPa	1324.6
293.15 K, 20121 kPa	1352.3
293.15 K, 25192 kPa	1379.6
293.15 K, 30134 kPa	1405
313.15 K, 107 kPa	1126.8
313.15 K, 5113 kPa	1164
313.15 K, 10058 kPa	1198.3
313.15 K, 15132 kPa	1231.3
313.15 K, 20097 kPa	1261.8
313.15 K, 25098 kPa	1291
313.15 K, 30162 kPa	1319.2
333.15 K, 149 kPa	1026.6
333.15 K, 5035 kPa	1067.6
333.15 K, 10139 kPa	1107
333.15 K, 15108 kPa	1142.5
333.15 K, 20130 kPa	1176.2
333.15 K, 25152 kPa	1208
333.15 K, 30170 kPa	1238
353.15 K, 261 kPa	929.4
353.15 K, 5019 kPa	974.63
353.15 K, 10069 kPa	1018.2
353.15 K, 15107 kPa	1058.1
353.15 K, 20063 kPa	1094.4
353.15 K, 25009 kPa	1128.3
353.15 K, 30157 kPa	1161.5
